Assay results taken from the supplement of paper PMC10307832.

Columns and labels:
Assay in all cases: relative viability (nuclei count vs DMSO), 5 days (fraction); higher = more cells survive
CX-5461 + Trametinib = compound: Cc1cnc(CNC(=O)c2c(=O)c3ccc(N4CCCN(C)CC4)nc3n3c2sc2ccccc23)cn1 [CX-5461] + CC(=O)Nc1cccc(-n2c(=O)n(C3CC3)c(=O)c3c(Nc4ccc(I)cc4F)n(C)c(=O)c(C)c32)c1 [Trametinib] (partner 0.02 µM)
Procedure, shortened: (§1)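 Relative viability is defined as nuclei in treated wells over nuclei in vehicle wells. Duplicate plates were run and medians reported. Lung cancer cell lines in 1536-well plates were dosed by pin tool one day after seeding, with one drug or with a fixed anchor-drug dose plus five library-drug doses (not always all listed) in √10 steps, and nuclei were counted after 5 days.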

CX-5461 + Bortezomib = compound: Cc1cnc(CNC(=O)c2c(=O)c3ccc(N4CCCN(C)CC4)nc3n3c2sc2ccccc23)cn1 [CX-5461] + CC(C)C[C@H](NC(=O)[C@H](Cc1ccccc1)NC(=O)c1cnccn1)B(O)O [Bortezomib] (partner 0.002 µM)
Procedure, shortened: as §1

IMD-0354 + Tozasertib = compound: O=C(Nc1cc(C(F)(F)F)cc(C(F)(F)F)c1)c1cc(Cl)ccc1O [IMD-0354] + Cc1cc(Nc2cc(N3CCN(C)CC3)nc(Sc3ccc(NC(=O)C4CC4)cc3)n2)n[nH]1 [Tozasertib] (partner 0.1 µM)
Procedure, shortened: as §1

IMD-0354 + Navitoclax = compound: O=C(Nc1cc(C(F)(F)F)cc(C(F)(F)F)c1)c1cc(Cl)ccc1O [IMD-0354] + CC1(C)CCC(c2ccc(Cl)cc2)=C(CN2CCN(c3ccc(C(=O)NS(=O)(=O)c4ccc(N[C@H](CCN5CCOCC5)CSc5ccccc5)c(S(=O)(=O)C(F)(F)F)c4)cc3)CC2)C1 [Navitoclax] (partner 0.5 µM)
Procedure, shortened: as §1

UMC-11
relative viability (CX-5461 + Trametinib; first compound 0.01 µM): 0.685
relative viability (CX-5461 + Trametinib; first compound 0.03162 µM): 0.769
relative viability (CX-5461 + Trametinib; first compound 0.1 µM): 0.762
relative viability (CX-5461 + Trametinib; first compound 0.3162 µM): 0.317
relative viability (CX-5461 + Trametinib; first compound 1 µM): 0.249
relative viability (CX-5461 + Bortezomib; first compound 0.01 µM): 1.01
relative viability (CX-5461 + Bortezomib; first compound 0.03162 µM): 0.707
relative viability (CX-5461 + Bortezomib; first compound 0.1 µM): 0.514
relative viability (CX-5461 + Bortezomib; first compound 0.3162 µM): 0.797
relative viability (CX-5461 + Bortezomib; first compound 1 µM): 0.198
relative viability (IMD-0354 + Tozasertib; first compound 0.04 µM): 0.202
relative viability (IMD-0354 + Tozasertib; first compound 0.1265 µM): 0.219
relative viability (IMD-0354 + Tozasertib; first compound 0.4 µM): 0.187
relative viability (IMD-0354 + Tozasertib; first compound 1.265 µM): 0.182
relative viability (IMD-0354 + Tozasertib; first compound 4 µM): 0.203
relative viability (IMD-0354 + Navitoclax; first compound 0.04 µM): 0.338
relative viability (IMD-0354 + Navitoclax; first compound 0.1265 µM): 0.276
relative viability (IMD-0354 + Navitoclax; first compound 0.4 µM): 0.29
relative viability (IMD-0354 + Navitoclax; first compound 1.265 µM): 0.112
relative viability (IMD-0354 + Navitoclax; first compound 4 µM): 0.149
